According to patent US20250163104A1, “MACROCYCLIC IMMUNOMODULATORS” (priority 2021, published 2025):
*1 amine or outer side, *2 acyl side, *3 side chain or, on linkers, in order; H or OH if unused. Where a SMILES comes first, the peptide text is derived from it. Bridges are numbered along the chain shown (N, C = ends). [ ]: non-standard residue; d: D form. The star is where a group is joined. ξ: configuration not given here. Phe(4-COOH) = N[C@@H](Cc1ccc(C(=O)O)cc1)C(=O)O; Bip = N[C@@H](Cc1ccc(-c2ccccc2)cc1)C(=O)O; X7 = CC(=N)NCCC[C@@H](N[*:1])C(=O)[*:2]; Phe(3-Me) = Cc1cccc(C[C@H](N)C(=O)O)c1; Gly(cPent) = N[C@H](C(=O)O)C1CCCC1; 4Pal = N[C@@H](Cc1ccncc1)C(=O)O; Cha = N[C@@H](CC1CCCCC1)C(=O)O; Ile(3ξ) = CCC(C)[C@H](N)C(=O)O; Thr(3ξ) = CC(O)[C@H](N)C(=O)O; Ala(CN) = N#CC[C@H](N)C(=O)O; Carboxymethyl = O=C(O)C*; Orn = NCCC[C@H](N)C(=O)O; Dab = NCC[C@H](N)C(=O)O; Sar = CNCC(=O)O

What follows are compounds tested against T1, human PD-1 / PD-L1-Ig binding on Jurkat cell line over-expressing human PD-1 (Jurkat-PD-1) (Homo sapiens, UniProt Q15116) (assay: Jurkat-PD-1 Cell Binding High-Content Screening Assay (CBA)). Details: Jurkat HPD1_PDL1 IC50, Jurkat-PD-1 cells, PE-labeled PD-L1-Ig 20 nM final.
T1 construct: expressed in transfected cells; host or cells: Jurkat
Assay type: cell-based
Summary of the method: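 PE-PD-L1-Ig 20 nM final; cells in DMEM/10% FCS; cpd pre-incubation 2 h, 37° C; ligand 1 h; PFA fix + Hoechst 33342; high-content imaging read-out.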

T1 sequence (Q15116 25-288): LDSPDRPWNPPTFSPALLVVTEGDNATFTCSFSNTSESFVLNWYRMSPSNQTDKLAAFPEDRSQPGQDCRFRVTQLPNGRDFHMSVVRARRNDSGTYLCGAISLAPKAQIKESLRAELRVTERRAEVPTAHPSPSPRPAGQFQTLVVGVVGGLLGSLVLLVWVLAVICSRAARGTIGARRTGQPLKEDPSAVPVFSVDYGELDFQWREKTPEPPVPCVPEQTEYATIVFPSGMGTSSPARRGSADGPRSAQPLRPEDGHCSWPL

First: CC(C)C[C@H]1NC(=O)[C@H](CCCN)NC(=O)[C@H](C(C)C)NC(=O)[C@H](Cc2ccc(-c3ccccc3)cc2)NC(=O)[C@H](C(C)C)NC(=O)[C@H](Cc2c[nH]c3ccccc23)NC(=O)[C@H](CC(=O)O)NC(=O)[C@H](Cc2ccc(C(=O)O)cc2)NC(=O)[C@H](Cc2ccc(OCC(=O)O)cc2)NC(=O)CSC[C@@H](C(=O)N[C@@H](CCN)C(=O)N[C@@H](CCCNC(=N)N)C(=O)O)NC(=O)[C@H](CO)NC(=O)[C@H](C(C)C)NC(=O)[C@H](CC2CCCCC2)NC(=O)[C@H](CCN)NC1=O [Compound 2586] ({CH2CO}-Y(Carboxymethyl)[Phe(4-COOH)]DWV[Bip]V[Orn][dL][Dab][Cha]VSC[Dab]R-OH; thioether N-14)
Second: CC(C)C[C@H]1NC(=O)[C@H](CCCN)NC(=O)[C@H](C(C)C)NC(=O)[C@H](Cc2ccc(-c3ccccc3)cc2)NC(=O)[C@H](C(C)C)NC(=O)[C@H](Cc2c[nH]c3ccccc23)NC(=O)[C@H](CC(=O)O)NC(=O)[C@H](Cc2ccc(C(=O)O)cc2)NC(=O)[C@H](Cc2ccc(OCC(=O)O)cc2)NC(=O)CSC[C@@H](C(=O)N[C@@H](CCN)C(=O)N[C@@H](CCCNC(=N)N)C(=O)O)NC(=O)[C@H](CCCN)NC(=O)[C@H](C(C)C)NC(=O)[C@H](CC2CCCCC2)NC(=O)[C@H](CCN)NC1=O [Compound 2587] ({CH2CO}-Y(Carboxymethyl)[Phe(4-COOH)]DWV[Bip]V[Orn][dL][Dab][Cha]V[Orn]C[Dab]R-OH; thioether N-14)
The IC50 of the first is 1.8-fold lower: 10 nM for the first, 18.4 nM for the second. The first is the more potent here.

Same assay, conditions: Jurkat-PD-1 cells, PE-labeled PD-L1-Ig 20 nM final; read-out: Jurkat HPD1_PDL1 IC50

CCC(C)[C@@H]1NC(=O)[C@H](Cc2ccc(-c3ccccc3)cc2)NC(=O)[C@H](CC(C)C)NC(=O)[C@H](Cc2c[nH]c3ccccc23)NC(=O)[C@H](CC(=O)O)NC(=O)[C@H](Cc2ccc(OCC(=O)O)cc2)NC(=O)[C@H](Cc2ccc(OCC(=O)O)cc2)NC(=O)CSC[C@@H](C(=O)N[C@@H](CC(N)=O)C(=O)O)NC(=O)[C@H](CO)NC(=O)[C@H](C(C)C)NC(=O)[C@H](CC(C)C)NC(=O)[C@H](CCN)NC(=O)[C@@H](CC(C)C)NC(=O)[C@H](CCCN)NC1=O (stereo partly drawn) [Compound 2576] ({CH2CO}-Y(Carboxymethyl)Y(Carboxymethyl)DWL[Bip][Ile(3ξ)][Orn][dL][Dab]LVSCN-OH; thioether N-14) and CCC(C)[C@@H]1NC(=O)[C@H](Cc2ccc(-c3ccccc3)cc2)NC(=O)[C@H](CC(C)C)NC(=O)[C@H](Cc2c[nH]c3ccccc23)NC(=O)[C@H](CC(=O)O)NC(=O)[C@H](Cc2ccc(OCC(=O)O)cc2)NC(=O)[C@H](C(C)O)NC(=O)CSC[C@@H](C(=O)N[C@@H](CC(N)=O)C(=O)O)NC(=O)[C@H](CO)NC(=O)[C@H](C(C)C)NC(=O)[C@H](CC(C)C)NC(=O)[C@H](CCN)NC(=O)[C@@H](CC(C)C)NC(=O)[C@H](CCCN)NC1=O (stereo partly drawn) [Compound 2577] ({CH2CO}-[Thr(3ξ)]Y(Carboxymethyl)DWL[Bip][Ile(3ξ)][Orn][dL][Dab]LVSCN-OH; thioether N-14) are within 1.5-fold of each other in IC50: 12.4 nM for the first, 13.1 nM for the second.

Going from CC(=N)NCCC[C@@H](NC(=O)[C@@H]1CSCC(=O)N[C@@H](Cc2ccc(OCC(=O)O)cc2)C(=O)N[C@@H](Cc2ccc(C(=O)O)cc2)C(=O)N[C@@H](CC(=O)O)C(=O)N[C@@H](Cc2cccc(C)c2)C(=O)N[C@@H](C(C)C)C(=O)N[C@@H](Cc2ccc(-c3ccccc3)cc2)C(=O)N[C@@H](C(C)C)C(=O)N[C@@H](CCN)C(=O)N[C@H](CC(C)C)C(=O)N[C@@H](CCN)C(=O)N[C@@H](CC2CCCCC2)C(=O)N[C@@H](C(C)C)C(=O)N[C@@H](CCCN)C(=O)N1)C(=O)O [Compound 2588] ({CH2CO}-Y(Carboxymethyl)[Phe(4-COOH)]D[Phe(3-Me)]V[Bip]V[Dab][dL][Dab][Cha]V[Orn]C[X7]-OH; thioether N-14) to Cc1cccc(C[C@@H]2NC(=O)[C@H](CC(=O)O)NC(=O)[C@H](Cc3ccc(C(=O)O)cc3)NC(=O)[C@H](Cc3ccc(OCC(=O)O)cc3)NC(=O)CSC[C@@H](C(=O)N[C@H](CCC(=O)O)C(=O)O)NC(=O)[C@H](CCCN)NC(=O)[C@H](C(C)C)NC(=O)[C@H](CC3CCCCC3)NC(=O)[C@H](CCN)NC(=O)[C@@H](CC(C)C)NC(=O)[C@H](CCN)NC(=O)[C@H](C(C)C)NC(=O)[C@H](Cc3ccc(-c4ccccc4)cc3)NC(=O)[C@H](C(C)C)NC2=O)c1 [Compound 2590] ({CH2CO}-Y(Carboxymethyl)[Phe(4-COOH)]D[Phe(3-Me)]V[Bip]V[Dab][dL][Dab][Cha]V[Orn]C[dE]-OH; thioether N-14), the IC50 rises from 10.1 nM to 30.2 nM (3-fold).

For Cc1cccc(C[C@@H]2NC(=O)[C@H](CC(=O)O)NC(=O)[C@H](Cc3ccc(C(=O)O)cc3)NC(=O)[C@H](Cc3ccc(OCC(=O)O)cc3)NC(=O)CSC[C@@H](C(=O)N[C@H](Cc3ccc(O)cc3)C(=O)O)NC(=O)[C@H](CCCN)NC(=O)[C@H](C(C)C)NC(=O)[C@H](CC3CCCCC3)NC(=O)[C@H](CCN)NC(=O)[C@@H](CC(C)C)NC(=O)[C@H](CCN)NC(=O)[C@H](C(C)C)NC(=O)[C@H](Cc3ccc(-c4ccccc4)cc3)NC(=O)[C@H](C(C)C)NC2=O)c1 [Compound 2589] ({CH2CO}-Y(Carboxymethyl)[Phe(4-COOH)]D[Phe(3-Me)]V[Bip]V[Dab][dL][Dab][Cha]V[Orn]C[dY]-OH; thioether N-14), the IC50 was 34.3 nM.

Same assay, conditions: read-out: Jurkat HPD1_PDL1 IC50; Jurkat-PD-1 cells, PE-labeled PD-L1-Ig 20 nM final

Compared with CCC(C)[C@@H]1NC(=O)[C@H](Cc2ccc(-c3ccccc3)cc2)NC(=O)[C@H](C2CCCC2)NC(=O)[C@H](Cc2c[nH]c3ccccc23)NC(=O)[C@H](CC(=O)O)NC(=O)[C@H](Cc2ccc(OCC(=O)O)cc2)NC(=O)[C@H](C(C)O)NC(=O)CSC[C@@H](C(=O)N[C@@H](CC(N)=O)C(=O)O)NC(=O)[C@H](CO)NC(=O)[C@H](C(C)C)NC(=O)[C@H](CC(C)C)NC(=O)[C@H](CCN)NC(=O)[C@@H](CC(C)C)NC(=O)[C@H](CCCN)NC1=O (stereo partly drawn) [Compound 2578] ({CH2CO}-[Thr(3ξ)]Y(Carboxymethyl)DW[Gly(cPent)][Bip][Ile(3ξ)][Orn][dL][Dab]LVSCN-OH; thioether N-14), CCC(C)[C@@H]1NC(=O)[C@H](Cc2ccc(-c3ccccc3)cc2)NC(=O)[C@H](CO)NC(=O)[C@H](Cc2c[nH]c3ccccc23)NC(=O)[C@H](CC(=O)O)NC(=O)[C@H](Cc2ccc(OCC(=O)O)cc2)NC(=O)[C@H](C(C)O)NC(=O)CSC[C@@H](C(=O)N[C@@H](CC(N)=O)C(=O)O)NC(=O)[C@H](CO)NC(=O)[C@H](C(C)C)NC(=O)[C@H](CC(C)C)NC(=O)[C@H](CCN)NC(=O)[C@@H](CC(C)C)NC(=O)[C@H](CCCN)NC1=O (stereo partly drawn) [Compound 2581] ({CH2CO}-[Thr(3ξ)]Y(Carboxymethyl)DWS[Bip][Ile(3ξ)][Orn][dL][Dab]LVSCN-OH; thioether N-14) is 19-fold higher in IC50: 24.3 nM for the first, 472 nM for the second. The first is the more potent here.

Compared with CCC(C)[C@@H]1NC(=O)[C@H](Cc2ccc(-c3ccccc3)cc2)NC(=O)[C@H](CC#N)NC(=O)[C@H](Cc2c[nH]c3ccccc23)NC(=O)[C@H](CC(=O)O)NC(=O)[C@H](Cc2ccc(OCC(=O)O)cc2)NC(=O)[C@H](C(C)O)NC(=O)CSC[C@@H](C(=O)N[C@@H](CC(N)=O)C(=O)O)NC(=O)[C@H](CO)NC(=O)[C@H](C(C)C)NC(=O)[C@H](CC(C)C)NC(=O)[C@H](CCN)NC(=O)[C@@H](CC(C)C)NC(=O)[C@H](CCCN)NC1=O (stereo partly drawn) [Compound 2579] ({CH2CO}-[Thr(3ξ)]Y(Carboxymethyl)DW[Ala(CN)][Bip][Ile(3ξ)][Orn][dL][Dab]LVSCN-OH; thioether N-14), CCC(C)[C@@H]1NC(=O)[C@H](Cc2ccc(-c3ccccc3)cc2)NC(=O)[C@H](Cc2c[nH]cn2)NC(=O)[C@H](Cc2c[nH]c3ccccc23)NC(=O)[C@H](CC(=O)O)NC(=O)[C@H](Cc2ccc(OCC(=O)O)cc2)NC(=O)[C@H](C(C)O)NC(=O)CSC[C@@H](C(=O)N[C@@H](CC(N)=O)C(=O)O)NC(=O)[C@H](CO)NC(=O)[C@H](C(C)C)NC(=O)[C@H](CC(C)C)NC(=O)[C@H](CCN)NC(=O)[C@@H](CC(C)C)NC(=O)[C@H](CCCN)NC1=O (stereo partly drawn) [Compound 2580] ({CH2CO}-[Thr(3ξ)]Y(Carboxymethyl)DWH[Bip][Ile(3ξ)][Orn][dL][Dab]LVSCN-OH; thioether N-14) is 3.4-fold lower in IC50: 153 nM for the first, 45 nM for the second. The second is the more potent here.

First: CCC(C)[C@@H]1NC(=O)[C@H](Cc2ccc(-c3ccccc3)cc2)NC(=O)[C@H](CC(C)C)NC(=O)[C@H](Cc2c[nH]c3ccccc23)NC(=O)[C@H](CC(=O)O)NC(=O)[C@H](Cc2ccc(OCC(=O)O)cc2)NC(=O)[C@H](Cc2ccncc2)NC(=O)CSC[C@@H](C(=O)N[C@@H](CC(N)=O)C(=O)O)NC(=O)[C@H](CO)NC(=O)[C@H](C(C)C)NC(=O)[C@H](CC(C)C)NC(=O)[C@H](CCN)NC(=O)[C@@H](CC(C)C)NC(=O)[C@H](CCCN)NC1=O (stereo partly drawn) [Compound 2582] ({CH2CO}-[4Pal]Y(Carboxymethyl)DWL[Bip][Ile(3ξ)][Orn][dL][Dab]LVSCN-OH; thioether N-14)
Second: CCC(C)[C@@H]1NC(=O)[C@H](CC2CCCCC2)NC(=O)[C@H](CCN)NC(=O)[C@@H](CC(C)C)NC(=O)[C@H](CCCN)NC(=O)[C@H](C(C)CC)NC(=O)[C@H](Cc2ccc(-c3ccccc3)cc2)NC(=O)[C@H](C(C)CC)NC(=O)[C@H](Cc2c[nH]c3ccccc23)NC(=O)[C@H](CC(=O)O)NC(=O)[C@H](Cc2ccc(OCC(=O)O)cc2)NC(=O)[C@H](C(C)O)NC(=O)CSC[C@@H](C(=O)N(C)CC(N)=O)NC(=O)[C@H](CO)NC1=O (stereo partly drawn) [Compound 2584] ({CH2CO}-[Thr(3ξ)]Y(Carboxymethyl)DW[Ile(3ξ)][Bip][Ile(3ξ)][Orn][dL][Dab][Cha][Ile(3ξ)]SC[Sar]-NH2; thioether N-14)
The IC50 of the first is 9.9-fold lower: 9.8 nM for the first, 97 nM for the second.

Work on CCC(C)[C@@H]1NC(=O)[C@H](CC2CCCCC2)NC(=O)[C@H](CCN)NC(=O)[C@@H](CC(C)C)NC(=O)[C@H](CCCN)NC(=O)[C@H](C(C)CC)NC(=O)[C@H](Cc2ccc(-c3ccccc3)cc2)NC(=O)[C@H](C(C)CC)NC(=O)[C@H](Cc2c[nH]c3ccccc23)NC(=O)[C@H](CC(=O)O)NC(=O)[C@H](Cc2ccc(OCC(=O)O)cc2)NC(=O)[C@H](C(C)O)NC(=O)CSC[C@@H](C(=O)N2CCC[C@H]2C(N)=O)NC(=O)[C@H](CO)NC1=O (stereo partly drawn) [Compound 2583] ({CH2CO}-[Thr(3ξ)]Y(Carboxymethyl)DW[Ile(3ξ)][Bip][Ile(3ξ)][Orn][dL][Dab][Cha][Ile(3ξ)]SCP-NH2; thioether N-14) yielded an IC50 of 122 nM.
